By IC50 is commonly meant the concentration that gives 50% inhibition. Low values mean higher potency, high ones lower potency.

Holding throughout (type): cell-based
For assay [1], the system named is A431. The assay is described as follows: MTT cytotoxicity assay, A431 (squamous carcinoma). As to conditions: Homo sapiens, A-431. Here is the method:
(§1) Cell survival after exposure to the sphingolipid metabolite mimetics was examined by MTT cytotoxicity assay. HepG2, A431, HeLa, MCF-7 and SA cells (7000 cells/well) were seeded in each well of a 96-well plate for 24 h. New medium was added to give final concentrations of 0 to 200 μM of the sphingolipid metabolite mimetics. Then, 50 μl of 1 mg/ml 3-(4,5-dimethylthiazol-2-yl)-2,5-diphenyltetrazolium bromide (MTT, Sigma-Aldrich Chemical) was added to each well for 4 h incubation at 37° C. The purple formazan formed was then solubilized by DMSO and absorbance at 570 nm was read by a microplate reader (Molecular Devices, Sunnyvale, Calif.).
A general note: Formazan colour is commonly taken as a measure of viable cells.

The subject of assay [2] is SW480. Put plainly: MTT cytotoxicity assay, SW480 (colon cancer). As to conditions: Homo sapiens.
Assay [3] deals with SiHa. Put plainly: MTT cytotoxicity assay, SiHa (ovarian cancer as headed). As to conditions: Homo sapiens, Cervical Cancer SiHa.
Assay [4] deals with SW620. Put plainly: MTT cytotoxicity assay, SW620 (colon cancer). As to conditions: Homo sapiens, SW-620.
For assay [5], the system named is MCF-7. Put plainly: MTT cytotoxicity assay, MCF-7 (breast cancer). As to conditions: Homo sapiens, MCF7; Breast Cancer MCF-7, MTT. The procedure:
as §1

Assay [6] has as its system SA. The assay is described as follows: MTT cytotoxicity assay, SA (pancreatic cancer as headed). The procedure:
as §1

Assay [7] has as its system HepG2. The assay is described as follows: MTT cytotoxicity assay, HepG2 (liver cancer). As to conditions: Homo sapiens. The procedure: as §1

Turning to `C/C=C/C=C/C(=O)N[C@H](C(=O)NCCCCCCCCCCCCCCCCCC)C(C)O` (stereo in doubt) [NZJU12, (2E,4E)-N-((2S,3R)-3-hydroxy-1-oxo-1-(octadecylamino)butan-2-yl)-2,4-hexadienoic acid amide], the 50% inhibitory concentration (IC50) in assay [1] was 187 ± 2.41 µM; in assay [2], 196 µM; in assay [3], greater than 200 µM; in assay [4] it was no less than 200 µM; in assay [5] it was 79.6 ± 2.34 µM; in assay [6], greater than 200 µM. Besides, 284 ± 8.3 µM corresponded to half-maximal inhibition in assay [7] (IC50).

For `CCCCCCCCCCCCCCCCCCNC(=O)[C@@H](N)[C@@H](C)O` [NZJU4, (2S,3R)-2-Amino-3-hydroxy-N-octadecylbutanamide], the IC50 in assay [1] was 21.3 ± 1.72 µM; in assay [2], 27.5 ± 3.03 µM; in assay [3] it was 39.5 ± 0.88 µM; in assay [4], 21.4 ± 1.24 µM; in assay [5], 27.4 ± 1.8 µM; in assay [7], 44.5 ± 3.49 µM.

Regarding `C/C=C/C=C/C(=O)N[C@H](C(=O)NCCCCCCCCCCCC)[C@@H](C)O` [NZJU10, (2E,4E)-N-((2S,3R)-3-hydroxy-1-oxo-1-(dodecylamino)butan-2-yl)-2,4-hexadienoic acid amide], the IC50 was 171 ± 12.1 µM in assay [1]; greater than 200 µM in assay [2]; greater than 200 µM in assay [3]; no less than 200 µM in assay [4]; 37.1 ± 4.11 µM in assay [5]; 189 ± 12.2 µM in assay [6]. This compound came in with a half-maximal inhibitory concentration (IC50) in assay [7] greater than 400 µM.

Consider `C/C=C/C=C/C(=O)N[C@H](C(=O)NCCCCCCCCCCCCCC)[C@@H](C)O` [NZJU11, (2E,4E)-N-((2S,3R)-3-hydroxy-1-oxo-1-(tetradecylamino)butan-2-yl)-2,4-hexadienoic acid amide], for which the IC50 is greater than 200 µM in assay [1]; greater than 200 µM in assay [2]; greater than 200 µM in assay [3]; no less than 200 µM in assay [4]; 27.76 ± 0.14 µM in assay [5]; 184 ± 1.9 µM in assay [6]. Further, the concentration for half-maximal inhibition (IC50) in assay [7] is greater than 400 µM.

Take `CCCCCCCCCCCCCCNC(=O)[C@@H](NC(=O)c1ccco1)[C@@H](C)O` [NZJU14, N-((2S,3R)-3-hydroxy-1-oxo-1-(tetradecylamino)butan-2-yl)-Furan-2-carboxamide]: the IC50 was 190 ± 6.86 µM in assay [1]; 110 ± 5.03 µM in assay [2]; 127 ± 7.41 µM in assay [3]; no less than 200 µM in assay [4]; 105 ± 5.03 µM in assay [5]; 148 ± 11.6 µM in assay [6]. For the same compound, the half-inhibitory concentration (IC50) in assay [7] is greater than 400 µM.

Consider `CCCCCCCCCCCCCCCCCCNC(=O)[C@@H](NC(=O)c1ccco1)[C@@H](C)O` [NZJU15, N-((2S,3R)-3-hydroxy-1-oxo-1-(octadecylamino)butan-2-yl)-Furan-2-carboxamide], for which the IC50 in assay [1] was 19.9 ± 0.45 µM; in assay [2], 24.4 ± 0.7 µM; in assay [3], 13.3 ± 1.05 µM; in assay [5], 21.4 ± 2.4 µM; in assay [6], 52.6 ± 6.02 µM; in assay [7] it was 42.3 ± 3.73 µM.

For the compound `CCCCCCCCCCCCCCNC(=O)[C@@H](NC(=O)c1ccccc1)[C@@H](C)O` [NZJU17, N-((2S,3R)-3-hydroxy-1-oxo-1-(tetradecylamino)butan-2-yl)-benzamide], the IC50 in assay [1] was 118 ± 9.09 µM; in assay [2], no less than 200 µM; in assay [3], greater than 200 µM; in assay [4], no less than 200 µM; in assay [5], 24.8 ± 6.75 µM; in assay [6], 56 ± 7.43 µM. Also, the half-inhibitory concentration (IC50) in assay [7] amounted to 54.2 ± 3.95 µM.

`CCCCCCCCCCCCCCCCCCNC(=O)[C@@H](NC(=O)c1ccccc1)[C@@H](C)O` [NZJU18, N-((2S,3R)-3-hydroxy-1-oxo-1-(octadecylamino)butan-2-yl)-benzamide]: the concentration for half-maximal inhibition (IC50) in assay [1] is 113 ± 7.87 µM; in assay [2] it was 36.47 ± 0.23 µM; in assay [3], 38.2 ± 2.52 µM; in assay [4], no less than 200 µM; in assay [5], 31.7 ± 6.55 µM; in assay [6] it was greater than 400 µM. For the same compound, in assay [7], the IC50 is greater than 400 µM.

As to `CCCCCCCCCCCCCC(=O)N[C@H](C(=O)Nc1ccccc1)[C@@H](C)O` [NZJU19, N-((2S,3R)-3-Hydroxy-1-oxo-1-(benzamino)butan-2-yl)-tetradecyl acid amide], the half-maximal inhibitory concentration (IC50) in assay [1] was greater than 200 µM; in assay [2], greater than 200 µM; in assay [3], greater than 200 µM; in assay [4], no less than 200 µM; in assay [5], greater than 400 µM; in assay [6], greater than 200 µM. This compound also displayed an IC50 in assay [7] greater than 400 µM.

With `CCCCCCCCCCCCNC(=O)[C@@H](NC(=O)/C=C/c1ccccc1)[C@@H](C)O` [NZJU24, (E)-N-((2S,3R)-3-hydroxy-1-oxo-1-(dodecylamino)butan-2-yl)-3-phenyl acrylic acid amide], the IC50 in assay [1] is greater than 200 µM; in assay [2], greater than 200 µM; in assay [3], greater than 200 µM; in assay [4], no less than 200 µM; in assay [5], greater than 200 µM; in assay [6], 154.8 ± 1.16 µM. The half-maximal inhibitory concentration (IC50) in assay [7] was greater than 200 µM.

Regarding `CCCCCCCCCCCCCCNC(=O)[C@@H](NC(=O)/C=C/c1ccccc1)[C@@H](C)O` [NZJU25, (E)-N-((2S,3R)-3-hydroxy-1-oxo-1-(tetradecylamino)butan-2-yl)-3-phenyl acrylic acid amide], the 50% inhibitory concentration (IC50) in assay [1] was 64.9 ± 4.87 µM; in assay [2] it was 86.9 µM; in assay [3], 35.8 ± 0.68 µM; in assay [4], no less than 200 µM; in assay [5], 64.6 ± 4.54 µM; in assay [6], 80.9 ± 1.9 µM. In assay [7], this compound showed a half-maximal inhibitory concentration (IC50) of 150 ± 4.37 µM.

For the compound `CCCCCCCCCCCCCCCCCCNC(=O)[C@@H](NC(=O)c1nccc2ccccc12)[C@@H](C)O` [NZJU32, N-((2S,3R)-3-hydroxy-1-oxo-1-(octadecylamino)butan-2-yl)-isoquinoline-1-carboxamide], the IC50 in assay [1] came to 44.1 ± 2.02 µM; in assay [2], 30.7 µM; in assay [3] it was 51.2 ± 3.46 µM; in assay [4] it was 136 ± 13.3 µM; in assay [5] it was 30.8 ± 0.67 µM; in assay [6] it was 49.1 ± 4.72 µM. For the same compound, in assay [7], inhibition was half-maximal at 96.9 ± 6.77 µM (IC50).

Turning to `CCCCCCCCCCCCCCCCCCNC(=O)[C@@H](NC(=O)c1cccs1)[C@@H](C)O` [NZJU35, N-((2S,3R)-3-hydroxy-1-oxo-1-(octadecylamino)butan-2-yl)-2-thiophene carboxamide], the IC50 in assay [1] was 33.3 ± 3.32 µM; in assay [2], 89 µM; in assay [3] it was 117 ± 3.9 µM; in assay [4], no less than 200 µM; in assay [5], 25.7 ± 0.47 µM; in assay [6], 53.5 ± 5.32 µM. The same compound had an IC50 in assay [7] of 92 ± 7.76 µM.

With `CCCCCCCCCCCCCCCCCCNC(=O)[C@@H](NC(=O)c1cc2ccccc2o1)[C@@H](C)O` [NZJU38, N-((2S,3R)-3-hydroxy-1-oxo-1-(octadecylamino)butan-2-yl)-benzofuran-2-carboxamide], the IC50 in assay [1] is 78.8 ± 6.99 µM; in assay [2], greater than 200 µM; in assay [3], greater than 200 µM; in assay [5] it was 126 ± 7.19 µM; in assay [6], 162 ± 4.55 µM; in assay [7], greater than 200 µM.

In the case of `CCCCCCCCNC(=O)[C@@H](NC(=O)c1ccco1)[C@@H](C)O` [NZJU40, N-((2S,3R)-3-hydroxy-1-oxo-1-(octylamino)butan-2-yl)-Furan-2-carboxamide], the IC50 was 64.5 ± 0.78 µM in assay [1]; 194 µM in assay [2]; 124 ± 8.78 µM in assay [3]; no less than 200 µM in assay [4]; 91.8 ± 4.21 µM in assay [5]; 64.65 ± 0.5 µM in assay [6]. The compound further had an IC50 in assay [7] of 192 ± 11.1 µM.

`CCCCCCCCNC(=O)[C@@H](NC(=O)/C=C/c1ccccc1)[C@@H](C)O` [NZJU42, (E)-N-((2S,3R)-3-hydroxy-1-oxo-1-(octylamino)butan-2-yl)-3-phenyl acrylic acid amide]: the concentration for half-maximal inhibition (IC50) in assay [1] stood at 36 ± 3.36 µM; in assay [2], 62.7 µM; in assay [3], 41.4 ± 5.96 µM; in assay [4] it was 61.35 ± 0.27 µM; in assay [5] it was 35.06 ± 0.2 µM; in assay [6], 25.6 ± 4.41 µM. Half-maximal inhibition in assay [7] (IC50) required 55.6 ± 0.64 µM.

For the compound `CCCCCCCCNC(=O)[C@@H](NC(=O)c1nccc2ccccc12)[C@@H](C)O` [NZJU43, N-((2S,3R)-3-hydroxy-1-oxo-1-(octylamino)butan-2-yl)-isoquinoline-1-carboxamide], the IC50 was 26.9 ± 2.81 µM in assay [1]; 66 ± 5.48 µM in assay [3]; 67.75 ± 0.099 µM in assay [4]; 63.2 ± 4.73 µM in assay [5]; 22.9 ± 2.59 µM in assay [6]; 88.2 ± 1.92 µM in assay [7].

`CCCCCCCCCCCCCCCCCCNC(=O)[C@@H](NS(=O)(=O)c1ccc2ccccc2c1)[C@@H](C)O` [NZJU63, N-((2S,3R)-3-hydroxy-1-oxo-1-(octadecylamino)butan-2-yl)-2-naphthylsulfonamide]: the IC50 was found to be 23.7 ± 1.46 µM in assay [1]; 69.1 ± 9.67 µM in assay [2]; 19.9 ± 3.31 µM in assay [3]; 21.2 ± 0.81 µM in assay [6]; 19.8 ± 3.12 µM in assay [7].

For the compound `CCCCCCCCCCCCCCNC(=O)[C@@H](NC(=O)C1=C[C@H](O)[C@H](O)[C@@H](O)C1)[C@@H](C)O` [NZJU64, (3S,4R,5S)-3,4,5-trihydroxy-N-((2S,3R)-3-hydroxy-1-oxo-1-(tetradecylamino)butan-2-yl)cyclohex-1-enecarboxamide], the IC50 worked out at 23.1 ± 2.97 µM in assay [1]; 47.8 ± 3.43 µM in assay [2]; 24.6 ± 2.04 µM in assay [3]; 33.7 ± 1.28 µM in assay [6]; 29.9 ± 2.81 µM in assay [7].
